Tests used:
Type in all cases: in vivo, human
participants with SSc-RP [1] = assay: SHAQ Visual Analog Scale - Breathing Problems; design: Visual Analog Scale-Breathing Problems, Baseline, Mean / Visual Analog Scale-Breathing Problems, Baseline, Median / Visual Analog Scale-Breathing Problems, In Clinic Visit (Day 12), Mean / Visual Analog Scale-Breathing Problems, In Clinic Visit (Day 12), Median / Visual Analog Scale-Breathing Problems, Change from Baseline, Mean / Visual Analog Scale-Breathing Problems, Change from Baseline, Median: scale not given here; conditions: for % improvement in Breathing (median): mITT
Procedure: (§1) Results: Patients in the study were administered the Scleroderma Health Assessment Questionnaire (SHAQ) at the time of study entry and during clinic visits following the treatment period. The study is a two-part, parallel arm design, prospective, double-blind, randomized study conducted in Australia (Flinders Medical Center). 27 patients were randomized into the first phase of the study, following which a DSMB meeting was held, which reviewed data on the primary study endpoint and key Raynaud's secondary endpoints. Data on the SHAQ was not available for the DSMB to review. The mITT population, in which any data was available post treatment was 24 patients was the analysis population for this first part of the study. The second part (i.e., part B) of the study will randomize 36 patients in a double blind, randomized, prospective, placebo controlled, crossover study. In the first part (i.e., Part A) of the study for which data is presented, patients were randomized into 6 groups, cilnidipine at two doses (10 and 20 mg) alone and in combination with tadalafil 5 mg, tadalafil 5 mg alone, and placebo. […] The DSMB recommended that the study proceed into its double blind prospective cross overpowered second phase and compare cilnidipine 20 mg alone to placebo. […] Cilnidipine treatment may reduce patient-reported SSc disease disability compared to placebo • b. Cilnidipine treatment may reduce patient-reported SSc disease alternative disability compared to placebo • c. Cilnidipine treatment may reduce patient-reported SSc disease pain* compared to placebo • d. Cilnidipine treatment may reduce patient-reported SSc disease severity compared to placebo • e. Cilnidipine treatment may reduce patient-reported SSc disease skin ulcer severity rating compared to placebo • f Cilnidipine treatment may reduce patient-reported SSc disease breathing difficulty compared to placebo • g. […] SSc disease pain comprises not only pain from Raynaud's but joint pain, headache, odynophagia, back pain, pain from skin ulceration, and neuropathic pain). Table E includes results of the Scleroderma Health Assessment Questionnaire.

participants with SSc-RP [2] = assay: SHAQ Alternative Disability Index
Description: The standard, validated, patient reported outcome measures tool for SSc patients, the Scleroderma Health Assessment Questionnaire (SHAQ), will be used to assess the participant qualify of life. Details are attached in the Appendix. The participant quality of life will be scored, and a disability index calculated for each questionnaire completed by the patient at Screening and each in-clinic visit. The absolute change in participant quality of life from baseline to the end of each dosing period will be calculated similar to frequency data as before.
The SHAQ is used to calculate a Disability Index to assess the participant qualify of life. The eight categories assessed by the Disability Index are 1) dressing and grooming, 2) arising, 3) eating, 4) walking, 5) hygiene, 6) reach, 7) grip, and 8) common daily activities. For each of these categories, patients report the amount of difficulty they have in performing two or three specific activities.
There are four possible responses for the Disability Index questions: • Without any difficulty=0 • With some difficulty=1 • With much difficulty=2 • Unable to do=3 • The highest score reported by the patient for any component question of the eight categories determines the score for that category. • If a component question is left blank or the response is too ambiguous to assign a score, then the score for that category is determined by the remaining completed question(s). • If all component questions are blank or if more than one answer is given, then follow up with the respondent is required. • If the respondent's mark is between the response columns, then move it to the closest one. If it's directly between the two, move it to the higher one.
The scoring variables and scoring rules permit the computation of two disability indices, the Standard Disability Index and the Alternative Disability Index.
The aid and device variables are not used to calculate the alternative disability index; it is calculated by adding the scores for each of the categories and dividing by the number of categories answered. This gives a score in the 0 to 3 range.

participants with SSc-RP [3] = assay: SHAQ Visual Analog Scale - overall disease severity; design: Overall Change in Severity, Baseline, Mean / Overall Change in Severity, Baseline, Median / Overall Change in Severity, Change from Baseline, Mean / Overall Change in Severity, Change from Baseline, Median: scale not given here
Procedure: as §1

[4] = Cilnidipine 10 mg, Modified ITT, Part A
[5] = Cilnidipine 20 mg, Modified ITT, Part A
[6] = Pooled Cilnidipine (10 mg or 20 mg, N = 7), mITT Part A
[7] = Tadalafil 5 mg, Modified ITT, Part A

## COCCOC(=O)C1=C(C)NC(C)=C(C(=O)OC/C=C/c2ccccc2)C1c1cccc([N+](=O)[O-])c1 (stereo not drawn) [Cilnidipine, 1,4-dihydro-2,6-dimethyl,4-(3-nitrophenyl)-3,5-pyridinedicarboxylic acid 2-methoxyethyl (2 E)-3-phenyl-2-propenyl ester]
Participants with SSc-RP [1]; [4]
  Visual Analog Scale-Breathing Problems, Baseline, Median: 0.000
Participants with SSc-RP [1]; Cilnidipine 20 mg (n = 3), SHAQ
  % improvement in Breathing (median): 67% (median)
Participants with SSc-RP [1]; Cilnidipine 20 mg (n = 3), last footnote
  VAS - Breathing problems, Baseline on a 0-10 VAS: **Baseline was 1.13 on a 0-10 VAS
Participants with SSc-RP [1]; [5]
  Visual Analog Scale-Breathing Problems, Baseline, Median: 1.200
Participants with SSc-RP [1]; Example 4, SHAQ, mITT Part A
  patient-reported SSc disease breathing difficulty compared to placebo: may reduce
Participants with SSc-RP [1]; Pooled Cilnidipine (n = 7), SHAQ
  % improvement in Breathing (median): 41% (median)
Participants with SSc-RP [2]; [4]
  Alternative disability index, Baseline, Mean: 0.500
Participants with SSc-RP [2]; [5]
  Alternative disability index, Baseline, Median: 0.250
Participants with SSc-RP [2]; Example 4, SHAQ, mITT Part A
  patient-reported SSc disease alternative disability compared to placebo: may reduce
Participants with SSc-RP [3]; [4]
  Overall Change in Severity, Baseline, Median: 1.900
  Overall Change in Severity, Change from Baseline, Mean: −0.900
  Overall Change in Severity, Change from Baseline, Median: −0.950
Participants with SSc-RP [3]; [5]
  Overall Change in Severity, Baseline, Median: 2.900
  Overall Change in Severity, Change from Baseline, Median: −1.600
  Overall Change in Severity, In Clinic Visit (Day 12), Median: 1.200
  Overall Change in Severity, Percent Change from Baseline, Median: −60.00%
Participants with SSc-RP [3]; Example 4, SHAQ, mITT Part A
  patient-reported SSc disease severity compared to placebo: may reduce
Participants with SSc-RP [3]; [6]
  SHAQ patient reported disease severity: Baseline, Mean (SD): 2.700 (2.3424)
  SHAQ patient reported disease severity: Baseline, Median: 2.900

## CN1CC(=O)N2[C@H](c3ccc4c(c3)OCO4)c3[nH]c4ccccc4c3C[C@@H]2C1=O [Tadalafil]
Participants with SSc-RP [1]; [7]
  Visual Analog Scale-Breathing Problems, Baseline, Mean: 1.025
  Visual Analog Scale-Breathing Problems, Baseline, Median: 0.450
  Visual Analog Scale-Breathing Problems, Change from Baseline, Mean: 0.925
  Visual Analog Scale-Breathing Problems, Change from Baseline, Median: 0.300
  Visual Analog Scale-Breathing Problems, In Clinic Visit (Day 12), Mean: 1.950
  Visual Analog Scale-Breathing Problems, In Clinic Visit (Day 12), Median: 0.450
  Visual Analog Scale-Breathing Problems, Percent Change from Baseline, Mean: 213.54%
  Visual Analog Scale-Breathing Problems, Percent Change from Baseline, Median: 115.63%
Participants with SSc-RP [2]; [7]
  Alternative disability index, Baseline, Mean: 0.688
  Alternative disability index, Change from Baseline, Mean: −0.071
  Alternative disability index, Change from Baseline, Median: −0.063
  Alternative disability index, In Clinic Visit (Day 12), Mean: 0.616
  Alternative disability index, In Clinic Visit (Day 12), Median: 0.482
  Alternative disability index, Percent Change from Baseline, Mean: 21.25%
  Alternative disability index, Percent Change from Baseline, Median: −7.69%
Participants with SSc-RP [3]; [7]
  Overall Change in Severity, Baseline, Mean: 3.600
  Overall Change in Severity, Baseline, Median: 2.550
  Overall Change in Severity, Change from Baseline, Mean: −0.850
  Overall Change in Severity, Change from Baseline, Median: −0.650
  Overall Change in Severity, In Clinic Visit (Day 12), Mean: 2.750
  Overall Change in Severity, In Clinic Visit (Day 12), Median: 1.500
  Overall Change in Severity, Percent Change from Baseline, Mean: −31.76%
  Overall Change in Severity, Percent Change from Baseline, Median: −36.22%

From patent publication US20240398771A1, “TREATMENT OF SCLERODERMA AND RAYNAUD'S SYNDROME” (Aisa Pharma, Inc., priority 2023, published 2024)
